Measured values from ChEMBL document CHEMBL1221362, “Dialkylaminoalkyl derivatives of bicyclic compounds with antiplasmodial activity” (Bioorg Med Chem, 2010).

Tests used:
Plasmodium falciparum = assay: Antiplasmodial activity against Plasmodium falciparum K1 infected in human blood by [3H]hypoxanthine incorporation assay; format: functional, organism-based
[1] = Selectivity index, ratio of IC50 for rat L6 cells to IC50 for Plasmodium falciparum K1; format: toxicity, cell-based; conditions: read-out: Ratio IC50
Plasmodium berghei [2] = assay: Antimalarial activity against Plasmodium berghei ANKA infected in albino mice (Mus musculus) assessed as reduction in parasitemia at 50 mg/kg, intraperitoneal for 4 days; format: functional; design: scale not given: the % may be the effect or the level left
Mus musculus [3] = assay: Toxicity in albino mouse assessed as mean survival days at 50 mg/kg, ip for 4 days; format: organism-based; design: dose 50 mg/kg, route intraperitoneal; conditions: in vivo, 96 h
L6 = assay: Cytotoxicity against rat L6 cells; format: cell-based
Plasmodium berghei [4] = assay: Antimalarial activity against Plasmodium berghei ANKA infected in albino mice (Mus musculus) assessed as reduction in parasitemia at 30 mg/kg, intraperitoneal for 4 days; format: functional; design: scale not given: the % may be the effect or the level left
Mus musculus [5] = assay: Toxicity in albino mouse assessed as mean survival days at 30 mg/kg, ip for 4 days; format: organism-based; design: dose 30 mg/kg, route intraperitoneal; conditions: in vivo, 96 h
Mus musculus [6] = assay: Toxicity in albino mouse assessed as mean survival days at 10 mg/kg, ip for 4 days; format: organism-based; design: dose 10 mg/kg, route intraperitoneal; conditions: in vivo, 96 h

Compound | IC50 (Plasmodium falciparum) | selectivity ratio [1] | Activity (Plasmodium berghei [2]) | MSD (Mus musculus [3]) | IC50 (L6) | Activity (Plasmodium berghei [4]) | MSD (Mus musculus [5]) | MSD (Mus musculus [6])
C[C@@H]1CC[C@H]2[C@@H](C)C(=O)O[C@@H]3O[C@@]4(C)CC[C@@H]1[C@]32OO4 [ARTEMISININ] | 6.4 nM |  |  |  |  |  |  | 
O=C(CCN1CCCCC1)N1CCC2(N3CCCCC3)CC(c3ccccc3)C1C(c1ccccc1)C2 (racemic) | 190 nM | 336 | 36.5% | 6 days | 63900 nM |  |  | 
c1ccc(C2CC3(N4CCCC4)CCN(CCN4CCCC4)C2C(c2ccccc2)C3)cc1 (stereo unspecified) |  | 116 |  |  |  |  |  | 
CN(C)C12CCN(C(=O)CCN3CCCCC3)C(C(c3ccccc3)C1)C(c1ccccc1)C2 (racemic) | 1070 nM | 120 |  |  | 128000 nM |  |  | 
O=C(CN1CCCC1)NC1CC2(N3CCCCC3)CC(c3ccccc3)C1C(c1ccccc1)C2 (stereo unspecified) | 110 nM | 191 |  |  | 21000 nM |  |  | 
CCN(CC)CCCC(C)Nc1ccnc2cc(Cl)ccc12 (stereo unspecified) [CHLOROQUINE] |  |  |  |  |  |  |  | 20 days
CN(C)C12CCN(CCCN3CCCCC3)C(C(c3ccccc3)C1)C(c1ccccc1)C2 (racemic) | 360 nM | 162 |  |  | 58400 nM |  |  | 
CN(C)C12CCN(CCN3CCCC3)C(C(c3ccccc3)C1)C(c1ccccc1)C2 (stereo unspecified) |  | 136 |  |  |  |  |  | 

Second part, led by results:

IC50 (Plasmodium falciparum) | Compound | selectivity ratio [1] | Activity (Plasmodium berghei [2]) | MSD (Mus musculus [3]) | IC50 (L6) | Activity (Plasmodium berghei [4]) | MSD (Mus musculus [5]) | MSD (Mus musculus [6])
180 nM | CCN1CCN(CCN2CCC3(N4CCCC4)CC(c4ccccc4)C2C(c2ccccc2)C3)CC1 (racemic) | 298 |  |  | 53600 nM | 8.9% | 7 days | 
360 nM | O=C(CCN1CCCCC1)N1CCC2(N3CCCC3)CC(c3ccccc3)C1C(c1ccccc1)C2 (racemic) | 300 |  |  | 108000 nM | 27.2% | 6.7 days | 
120 nM | c1ccc(C2CC3(N4CCCCC4)CCN(CCCN4CCCCC4)C2C(c2ccccc2)C3)cc1 (racemic) | 1150 | 30.4% | 8 days | 138000 nM |  |  | 
100 nM | c1ccc(C2CC3(N4CCCC4)CCN(CCCN4CCCCC4)C2C(c2ccccc2)C3)cc1 (racemic) | 287 |  |  | 28700 nM | 31% | 7 days | 
140 nM | CCN1CCN(CCN2CCC3(N4CCCCC4)CC(c4ccccc4)C2C(c2ccccc2)C3)CC1 (racemic) | 482 |  |  | 67500 nM | 0% | 7 days | 
340 nM | CCN1CCN(CCN2CCC3(N(C)C)CC(c4ccccc4)C2C(c2ccccc2)C3)CC1 (racemic) | 170 |  |  | 58000 nM |  |  | 
